Common to all, as to format: cell-based, human
Test [1] has as its system Akt, MAPK and ERα phosphorylation. Briefly: Phosphorylation of Akt, MAPK and ERα in tamoxifen-resistant MCF-7 cells. Conditions: Tam-R MCF-7, tamoxifen alone or tamoxifen and E2. Here is the method: FIG. 14 is a diagram illustrating the suppression effect of the ERAP1-peptide on tamoxifen-resistant MCF-7 cells. […] The tamoxifen-resistant MCF-7 cells were treated with the ERAP1-peptide in each concentration (0, 5 and 10 μM). Then, immediately, the cells were stimulated with 10 nM E2 for 24 hours.
MCF-7 cells and tamoxifen-resistant MCF-7 cells were seeded in 1×10^5/well in DMEM/F12 culture medium containing phenol red on a 24-well plate and stood in a CO2 incubator for 24 hours. Then, the culture medium was exchanged with DMEM/F12 culture medium containing 10% FBS, 1% penicillin/streptomycin and 1 μM tamoxifen, and not containing phenol red, and the cells were further pre-cultured for 24 hours. The supernatant was removed, and then 180 μl of […] ERAP1-peptide was added (final concentration: 10 μM), and subsequently 20 μl of 100 nM E2 was added (final concentration: 10 nM), and the mixture was reacted for 24 hours. The reaction solution was removed, and then 100 μl of SDS-sample buffer was added and the cells were lysed. The cells were subjected to boiling treatment at 95° C. for 5 minutes, and subjected to polyacrylic amide electrophoresis. Phosphorylations of Akt and MAPK were detected with anti-phosphorylation Akt (Ser473) (587F11) and anti-phosphorylation p44/42 MAP Kinase (Thr202/Tyr204) antibodies, and phosphorylation of ERα was detected with anti-phosphorylation ERα (Ser104/106), anti-phosphorylation ERα (Ser118), anti-phosphorylation ERα (Ser167), anti-phosphorylation ERα (Ser305) and anti-phosphorylation ERα (Tyr537) antibodies.

Test [2] concerns MCF-7 cells. Briefly: Cell cycle FACS analysis, MCF-7. Conditions: 10 μM ERAP1-peptide and/or 10 nM tamoxifen, 10 nM E2 24 hours. Here is the method:
FIG. 6-2 is a diagram illustrating that ERAP1-peptide treatment suppresses ERα-dependent cell proliferation of breast cancer cell lines. […] MCF-7 cells were treated with 10 μM ERAP1-peptide or 10 μM tamoxifen. Then, immediately, the cells were stimulated with 10 nM E2 for 24 hours. After the immobilization, the cells were stained with propidium iodide, and analyzed by flow cytometry.
FIG. 19 is a diagram illustrating the results of FACS analysis showing the effects of concomitant use of the ERAP1-peptide and tamoxifen on the cell cycle.
The cells were fixed with cold 70% ethanol, and stained with 20 μg/ml propidium iodide (Sigma) and 1 mg/ml ribonuclease A (Sigma), and analyzed with FACSCalibur (B D, Franklin Lakes, N.J., USA). The cell cycle was evaluated using CellQuest software (BD).
MCF-7 cells were treated with 10 μM ERAP1-peptide and/or 10 nM tamoxifen. Then, immediately, the cells were stimulated with 10 nM E2 for 24 hours. After the immobilization, the cells were stained with propidium iodide, and analyzed by flow cytometry.
(A flow cytometer gives signals particle by particle.)

The subject of test [3] is MCF-7 cells. Briefly: MTT assay of tamoxifen with ERAP1 knockdown. Conditions: 10 μM tamoxifen, 96 hours, 1 μM E2. Here is the method:
(§1) FIG. 17 is a diagram illustrating the influence of ERAP1 knockdown on the suppression effect on proliferation of breast cancer cells by tamoxifen.
The inhibition effect of tamoxifen when ERAP1 was knocked down by siRNA method was evaluated with MTT assay. The sequences of si-ERAP1, and si-control (si-EGFP) and the method for the experiment were in accordance with the report of Kim et, al. (Cancer Science, 2009, 100; 1468-78) MCF-7 cells were seeded in […] on a 48-well plate, and stimulated with 1 μM E2, and after 24 hours, treated with si-ERAP1 or si-control. After 24 hours, the cells were treated with 10 μM tamoxifen and the number of living cells was evaluated with MTT assay after 96 hours.
In general terms: Tetrazolium assays rely on reduction of a dye to a coloured formazan, in cell work by metabolically active cells.

Another test has as its system ERAP1 expression. Nature of the test: ERAP1 expression, quantitative RT-PCR and Western, MCF-7. Conditions: tamoxifen, 10 nM E2 24 hours.
In another test the test system is ERE reporter activity. Briefly: ERE-luciferase assay of tamoxifen with ERAP1 knockdown. Conditions: 10 μM tamoxifen, 96 hours, 1 μM E2. Here is the method:
as §1
In addition, the inhibition effect of tamoxifen when ERAP1 was knocked down by siRNA method was evaluated with ERE-luciferase assay. MCF-7 cells were seeded in 2×10^4/well on a 96-well plate, and were temporarily transfected with ERE-luciferase reporter. Then, the cells were stimulated with 1 μM E2, and after 24 hours, treated with si-ERAP1 or si-control. After 24 hours, the cells were treated with 10 μM tamoxifen and after 96 hours, ERE luciferase activity was measured.

Turning to `CC/C(=C(\c1ccccc1)c1ccc(OCCN(C)C)cc1)c1ccccc1` [tamoxifen, reference compound], the “phosphorylations of Akt and MAPK” value in test [1] was “accelerated phosphorylations of Akt and MAPK”. In addition, the cell cycle entry with MCF-7 cells [2] was “increase of cells having stopped in the G1 phase”. The “cell proliferation, siERAP1 versus si-control” value in the test on MCF-7 cells [3] is given as “the cell proliferation was suppressed more”. In addition, in the test with ERAP1 expression, the “expression of ERAP1, mRNA level and protein level” value was “suppressed depending on the concentration of TAM”. The “ERE reporter activity, siERAP1 versus si-control” value in the test on ERE reporter activity was “the reporter activity was suppressed more”.
